Measured values: patent US20230285598A1, “SULFOXONIUM YLIDE DERIVATIVES AS PROBES FOR CYSTEINE PROTEASE” (Takeda Pharmaceutical Company Limited, priority 2018, published 2023)

Assays:
cathepsin X [1] = molecular target: T1, cathepsin X (Mus musculus, UniProt Q9WUU7); test: Probe labeling of living RAW264.7 cells, in-gel fluorescence; type: cell-based; parameters: protein lysates prepared from RAW264.7 cells; host or cells: RAW264.7; conditions: Example 8; 0.1-5 µM for 2 hours
Method: AW cells or MDA-MB-231 ^HM cells were plated in 12-well plates. Where indicated, MDV-590 or vehicle was added at 10 µM from a 10 mM DMSO stock for overnight incubation. When the cell density reached 80%, the indicated probes were added at the indicated concentrations from a 1000x DMSO stock and allowed to incubate for the indicated time. Media was then removed and replaced with PBS. The cells were then scraped and transferred to tubes, and lysis and SDS-PAGE analysis were carried out as above, except skipping the probe addition step. […]
In Example 8, sulfoxonium ylide probes as prepared in accordance with Example 1 were applied to live RAW264.7 cells for two hours, in order to examine the potency and permeability of the sulfoxonium ylide probe series in living cells, and the results compared to BMV109.
The sulfoxonium ylide probes (and BMV109) were each added with increasing probe concentrations of 0.1 µM, 0.5 µM, 1 µM and 5 µM for 2 hours. […]

cathepsin X [2] = molecular target: T1, cathepsin X; test: Confocal microscopy of kidney cryosections after in vivo probe administration
Method: Kidney tissues from mice that received sCy5-Nle-SY (or vehicle control) above were fixed overnight in 4% paraformaldehyde in PBS followed by overnight cryoprotection in 30% sucrose. Tissues were embedded in OCT, frozen on dry ice, and sectioned at 10 µm. Immunostaining for cathepsin X was carried out according to standard protocols. In brief, sections were air dried, fixed in cold acetone for 10 minutes, air dried again, and then rehydrated in PBS. Sections were blocked in PBS containing 3% normal horse serum with 0.1% Triton X-100. Goat anti-cathepsin X was added at 1:100 in blocking buffer overnight at 4° C. Sections were then washed, and secondary antibody, donkey anti-goat-AlexaFluor594 was added at 1:500 for 1 hour at room temperature. Sections were stained with DAPI for 5 minutes, washed, and mounted with ProLong Diamond. Staining was analyzed using a Leica SP8 inverted confocal microscope.
Additionally, after in vivo probe administration, kidney cryosections from sCy5-Nle-SY-injected mice or no-probe control were prepared and analyzed by confocal microscopy for sCy5 fluorescence (red) or cathepsin X immunoreactivity (green) along with DAPI (blue) to visualize nuclei. […] Thus, sCy5-Nle-SY could be used to distinguish active cathepsin X relative to total cathepsin X in tissues after in vivo administration.

T1 sequence (Q9WUU7 64-306): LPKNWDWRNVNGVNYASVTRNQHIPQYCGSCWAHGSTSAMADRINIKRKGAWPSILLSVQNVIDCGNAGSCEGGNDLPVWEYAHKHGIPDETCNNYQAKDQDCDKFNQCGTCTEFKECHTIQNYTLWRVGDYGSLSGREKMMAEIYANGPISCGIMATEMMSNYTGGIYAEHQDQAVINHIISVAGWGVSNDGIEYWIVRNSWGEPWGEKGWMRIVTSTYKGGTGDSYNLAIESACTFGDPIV

SMILES: CCCC[C@H](NC(=O)CCCCCN1/C(=C/C=C/C=C/C2=[N+](CC)c3ccc(S(=O)(=O)[O-])cc3C2(C)C)C(C)(C)c2cc(S(=O)(=O)O)ccc21)C(=O)C=S(C)(C)=O [sCy5-Nle-SY]
- cathepsins labeled in live RAW264.7 cells (cathepsin X [1]): labeled cathepsin X and S to similar extents and with similar potency
- sCy5 fluorescence in kidney cryosections (cathepsin X [2]; after in vivo probe administration): Strong punctate sCy5 fluorescence was observed
- overlap of sCy5 signal with cathepsin X immunoreactivity (cathepsin X [2]; kidney cryosections after in vivo probe administration): signal largely overlapped with immunoreactive cathepsin X
